Assays:
[1] = Stability after extraction from human plasma (HPLC-MS); format: in vitro ADME; details: for Stability after extraction (amount found): Plasma, 10 µM
Description: Compound prepared according to example 1 was tested for stability at 10 µM concentration in deionized water, phosphate buffer (HBSS with calcium and magnesium) and human plasma for 0 and after 24 hrs at 37 °C, by carrying out the extraction as described in Materials and Methods, and subsequent HPLC-MS analysis for the analyte of interest.
For stability tests, to 2 ml of deionized water, HBSS or human plasma, the compound of example 1 (10 µM) and 5,000 cpm of [^3H]ABA were added, for the purpose of evaluating the recovery after the extraction procedure. The so prepared samples were exctracted at time 0 and after 24 hrs.
For the extraction, 8 ml was added of distilled methanol (methanol/water : 80/20 vol/vol) and the mixture was kept at -20 °C overnight.
The following day the samples were centrifuged at 800xg for 10 minutes and the supernatant was concentrated to dryness by Rotavapor. The reconstituted aqueous solution was acidified at pH 2.6 with 10 % trifluoroacetric acid (TFA) and was extracted three times with diethyl ether (diethyl ether/water: 1:1 vol/vol).
The ethereal phase was finally removed by Rotavapor and the extraxt was resuspended in 1 ml of HBSS; 8 µl of such solution was analysed by HPLC-MS, and 100 µl was used for radioactivity counting by a Packard β-counter in order to compute extraction recovery.
(§1) The HPLC-MS system used consists of an Agilent 1100 capillary chromatograph equipped with a diode array detector (DAD) and coupled with an Agilent 1100 series LC/MSD Trap mass spectometer with orthogonal electrospray source and a ionic-trap analyser.
(§2) The detection wavelength was 254 nm and the MS spectrum was recorded in negative ions mode in an m/z range of 50-300.
(§3) The amount of compound of example 1 in the extracts and supernatants was computed as the area of the peak under the extracted ion current m/z 279.3, normalized for the ionization efficiency of internal standard (hexadeuterated ABA) used for HPLC-MS analysis. Furthermore, the concentration was computed using the recovery rates obtained from the evaluation of counts per minute (cpm) of extracted [^3H]ABA.

human granulocytes = experiment: Stability without extraction in HBSS in the presence of human granulocytes (HPLC-MS); format: in vitro ADME; details: for Stability (without extraction): Granulocytes in HBSS, 10 µM, 37 °C
Description: Additionally, stability tests were carried out in water, in HBSS and in HBSS in the presence of human granulocytes at time 0, and after 1 and 2 hrs at 37 °C, and carrying out HPLC-MSS analysis without extracting the analyte of interest.
In order to test the compound prepared according to example 1 for stability in HBSS in the presence, or absence, of granulocytes, 1 x 10^8 cells were used in 2 ml of HBSS (with calcium and magnesium added) containing 10 µM of compound prepared according to example 1 at 37°C. Samples of 500 µl each were drawn at time 0, and after 1 and 2 hrs and the cells were separated by centrifugation at 200xg for 5 minutes; the supernatant was then recovered and directly analysed in HPLC-MS.
as §1, §2, §3

SMILES: CC(=C/C(=O)O)/C=C/C1(O)C(C)(C)CC(=O)C2OC21C (stereo not drawn) [Example 1, 2'α,3'α-dihydro-2'α,3'α-epoxyabscisic acid]
- Stability after extraction (amount found) ([1]; 0 hr, equals extraction yield, listed as compound of example 1): 56%
- Stability after extraction (amount found) ([1]; 0 hr, equals extraction yield, listed as compound prepared according to example 1): 56%
- Stability after extraction (amount found) ([1]; 24 hrs at 37 °C): 49%
- degradation ([1]; in plasma, 0 vs 24 hrs): 7%
- Stability (without extraction) (human granulocytes; 0 hr): 94%
- Stability (without extraction) (human granulocytes; 1 h): 82%
- Stability (without extraction) (human granulocytes; 2 hrs): 73%
- degradation rate (human granulocytes; phosphate buffer with human granulocytes, non-extracted samples): about 10 %/ hour
